Measured values taken from patent US20160137639A1, “TRIAZOLE-ISOXAZOLE COMPOUND AND MEDICAL USE THEREOF” (JAPAN TOBACCO INC., priority 2012, published 2016).

Key:
mouse RORγ = target: T1, mouse RORγ (Mus musculus, UniProt P51450); assay: Luciferase reporter gene assay of inhibitory effect against RORγ transcriptional activity (GAL4-mRORγ plasmid in CHO cells); type: cell-based; conditions: read-out: LUC EC50 mRORg
T1 construct: mouse, NM_011281.2 and from Ile251 to Lys516; expressed in transfected cells; host or cells: CHO cells (transient co-transfection with pG5-Luc reporter)
T1 sequence (P51450 251-516): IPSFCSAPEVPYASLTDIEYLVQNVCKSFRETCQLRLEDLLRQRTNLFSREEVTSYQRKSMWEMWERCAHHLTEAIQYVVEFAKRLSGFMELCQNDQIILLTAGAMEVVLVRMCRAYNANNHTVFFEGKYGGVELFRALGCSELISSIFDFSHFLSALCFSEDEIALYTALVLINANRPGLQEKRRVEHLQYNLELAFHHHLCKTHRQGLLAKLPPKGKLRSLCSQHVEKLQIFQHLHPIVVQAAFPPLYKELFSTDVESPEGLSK
Procedure, shortened: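 CHO cells transiently co-transfected with GAL4-mouse RORγ LBD (Ile251–Lys516) and GAL4-dependent luciferase reporter; eight compound concentrations, 0.1% DMSO, 2 days at 37 °C. Luminescence as %-of-vehicle control; EC50 by curve fit, cytotoxic concentrations excluded.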

human RORγ = target: T2, human RORγ (Homo sapiens, UniProt P51449); assay: Luciferase reporter gene assay of inhibitory effect against RORγ transcriptional activity (GAL4-hRORγ plasmid in CHO cells); type: cell-based; conditions: read-out: LUC EC50 hRORg
T2 construct: human, NM_005060.3 and from Ser253 to Lys518; expressed in transfected cells; host or cells: CHO cells (transient co-transfection with pG5-Luc reporter)
T2 sequence (P51449 253-518): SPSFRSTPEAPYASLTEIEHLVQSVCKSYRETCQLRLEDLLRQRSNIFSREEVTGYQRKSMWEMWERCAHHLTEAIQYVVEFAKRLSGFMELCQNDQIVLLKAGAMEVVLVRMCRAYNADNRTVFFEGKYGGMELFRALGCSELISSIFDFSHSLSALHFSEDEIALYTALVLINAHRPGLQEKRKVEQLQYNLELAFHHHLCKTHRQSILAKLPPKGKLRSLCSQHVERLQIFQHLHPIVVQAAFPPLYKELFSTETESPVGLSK

SMILES | EC50 (mouse RORγ) | EC50 (human RORγ)
Cc1ccc(NC(=O)C[C@@H](c2nnc([C@H]3C[C@@H](CC(C)C)C3)n2C2CC2)N(C)C(C)C)c(C)c1 [Example F-537] | < 3 µM | < 3 µM
Cc1ccc(NC(=O)[C@H]2CN(C(=O)OC(C)(C)C)C[C@@H]2c2nnc([C@H]3C[C@@H](CC(C)(C)C)C3)n2C2CC2)c(C)c1 [Example F-540] | < 3 µM | < 3 µM
Cc1ccc(NC(=O)[C@H]2CN(CC(F)(F)F)C[C@@H]2c2nnc([C@H]3C[C@@H](CC(C)(C)C)C3)n2C2CC2)c(C)c1 [Example F-541] | < 3 µM | < 3 µM
Cc1ccc(NC(=O)[C@H]2CN(S(=O)(=O)C(F)(F)F)C[C@@H]2c2nnc([C@H]3C[C@@H](CC(C)(C)C)C3)n2C2CC2)c(C)c1 [Example F-542] | < 3 µM | < 3 µM
CC(C)C[C@H]1C[C@@H](c2nnc([C@@H](CCO)CC(=O)Nc3cccc4c3CCC4)n2C2CC2)C1 [Example F-543] | < 3 µM | < 3 µM
Cc1ccc(NC(=O)C[C@@H](c2nnc([C@H]3C[C@@H](CC(C)C)C3)n2C2CC2)N(C)CCO)c(C)c1 [Example F-544] | < 3 µM | < 3 µM
Cc1cc(C(F)(F)F)ccc1NC(=O)C[C@H](CCO)c1nnc([C@H]2C[C@@H](CC(C)C)C2)n1C1CC1 [Example F-546] | < 3 µM | < 3 µM
Cc1ccc(NC(=O)[C@H]2CN(S(=O)(=O)C(F)(F)F)C[C@@H]2c2nnc(-c3cc(CC(C)C)on3)n2C2CC2)c(C)c1 [Example F-547] | < 3 µM | < 3 µM
Cc1cc(C)c(NC(=O)C[C@H](CCO)c2nnc([C@H]3C[C@@H](CC(C)C)C3)n2C2CC2)c(F)c1 [Example F-548] | < 3 µM | < 3 µM
Cc1ccc(NC(=O)[C@H]2CN(C)C[C@@H]2c2nnc([C@H]3C[C@@H](CC(C)(C)C)C3)n2C2CC2)c(C)c1 [Example F-549] | < 3 µM | < 3 µM
Cc1ccc(NC(=O)[C@H]2CN(S(=O)(=O)C(F)F)C[C@@H]2c2nnc([C@H]3C[C@@H](CC(C)(C)C)C3)n2C2CC2)c(C)c1 [Example F-550] | < 3 µM | < 3 µM
Cc1ccc(NC(=O)[C@H]2CN(C(=O)C(F)F)C[C@@H]2c2nnc([C@H]3C[C@@H](CC(C)(C)C)C3)n2C2CC2)c(C)c1 [Example F-551] | < 3 µM | < 3 µM
Cc1ccc(NC(=O)[C@H]2CN(S(=O)(=O)C(C)C)C[C@@H]2c2nnc([C@H]3C[C@@H](CC(C)(C)C)C3)n2C2CC2)c(C)c1 [Example F-552] | < 3 µM | < 3 µM
Cc1ccc(NC(=O)[C@H]2CN(C(=O)C(C)C)C[C@@H]2c2nnc([C@H]3C[C@@H](CC(C)(C)C)C3)n2C2CC2)c(C)c1 [Example F-553] | < 3 µM | < 3 µM
Cc1ccc(NC(=O)C[C@H](OC(C)C)c2nnc([C@H]3C[C@@H](CC(C)C)C3)n2C2CC2)c(C)c1 [Example F-558] | < 3 µM | < 3 µM
Cc1ccc(NC(=O)[C@H]2CN(S(=O)(=O)CC(F)(F)F)C[C@@H]2c2nnc([C@H]3C[C@@H](CC(C)(C)C)C3)n2C2CC2)c(C)c1 [Example F-559] | < 3 µM | < 3 µM
Cc1ccc(NC(=O)C[C@H](C[C@@H](C)O)c2nnc([C@H]3C[C@@H](CC(C)C)C3)n2C2CC2)c(C)c1 [Example F-560] | < 3 µM | < 3 µM
Cc1ccc(NC(=O)C[C@H](CCO)c2nnc([C@H]3C[C@@H](CC(C)(C)C)C3)n2C2CC2)c(C)c1 [Example F-561] | < 3 µM | < 3 µM
Cc1ccc(NC(=O)C[C@H](CC(F)(F)F)c2nnc(-c3cc(CC(C)C)on3)n2C2CC2)c(C)c1 [Example F-567] | < 3 µM | < 3 µM
Cc1ccc(NC(=O)C[C@H](CC(F)(F)F)c2nnc([C@H]3C[C@@H](CC(C)C)C3)n2C2CC2)c(C)c1 [Example F-568] | < 3 µM | < 3 µM
CCO[C@@H](CC(=O)Nc1ccc(C)cc1C)c1nnc(-c2cc(CC(C)C)on2)n1C1CC1 [Example F-569] | < 3 µM | < 3 µM
Cc1ccc(NC(=O)[C@H]2CC(F)(F)C[C@@H]2c2nnc([C@H]3C[C@@H](CC(C)C)C3)n2C2CC2)c(C)c1 [Example F-571] | < 3 µM | < 3 µM
Cc1ccc(NC(=O)[C@@H]2CC(F)(F)C[C@H]2c2nnc([C@H]3C[C@@H](CC(C)C)C3)n2C2CC2)c(C)c1 [Example F-572] | < 3 µM | < 3 µM
